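Five concentrations, 48 hours, 96-well plates. TGI marks complete inhibition of growth.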
Tests used:
Test in all cases: NCI anticancer screen, dose series, 48 h
NCI-H460 lung = tested on: NCI-H460 lung
HCT-116 colon = tested on: HCT-116 colon
KM20L2 colon = tested on: KM20L2 colon
SK-MEL-28 melanoma = tested on: SK-MEL-28 melanoma
TK-10 renal = tested on: TK-10 renal
SF-268 CNS = tested on: SF-268 CNS
NCI-H522 lung = tested on: NCI-H522 lung
HOP-62 NSCLC = tested on: HOP-62 NSCLC
LXFL 529 NSCLC = tested on: LXFL 529 NSCLC
HOP-92 NSCLC = tested on: HOP-92 NSCLC
NCI-H226 lung = tested on: NCI-H226 lung
SNB-75 CNS = tested on: SNB-75 CNS
SNB-78 CNS = tested on: SNB-78 CNS
A549 NSCLC = tested on: A549 NSCLC
SN12C renal = tested on: SN12C renal
A498 renal = tested on: A498 renal
HCC-2998 colon = tested on: HCC-2998 colon
SR leukemia = tested on: SR leukemia
LOX IMVI melanoma = tested on: LOX IMVI melanoma
OVCAR-5 ovarian = tested on: OVCAR-5 ovarian
OVCAR-4 ovarian = tested on: OVCAR-4 ovarian
M14 melanoma = tested on: M14 melanoma
HOP-18 NSCLC = tested on: HOP-18 NSCLC
SW-620 colon = tested on: SW-620 colon
SK-OV-3 ovarian = tested on: SK-OV-3 ovarian
MOLT-4 leukemia = tested on: MOLT-4 leukemia
RXF 393 renal = tested on: RXF 393 renal
HL-60(TB) leukemia = tested on: HL-60(TB) leukemia
MALME-3M melanoma = tested on: MALME-3M melanoma
CCRF-CEM leukemia = tested on: CCRF-CEM leukemia
DMS 114 small cell lung = tested on: DMS 114 small cell lung
UACC-257 melanoma = tested on: UACC-257 melanoma
DLD-1 colon = tested on: DLD-1 colon
XF 498 CNS = tested on: XF 498 CNS
RXF-631 renal = tested on: RXF-631 renal
ACHN renal = tested on: ACHN renal
KM12 colon = tested on: KM12 colon
CAKI-1 renal = tested on: CAKI-1 renal
HT29 colon = tested on: HT29 colon
DMS 273 small cell lung = tested on: DMS 273 small cell lung
COLO 205 colon = tested on: COLO 205 colon
SK-MEL-5 melanoma = tested on: SK-MEL-5 melanoma
SNB-19 CNS = tested on: SNB-19 CNS
U251 CNS = tested on: U251 CNS
SF-295 CNS = tested on: SF-295 CNS
HCT-15 colon = tested on: HCT-15 colon
786-0 renal = tested on: 786-0 renal
SK-MEL-2 melanoma = tested on: SK-MEL-2 melanoma
NCI-H23 lung = tested on: NCI-H23 lung
RPMI-8226 leukemia = tested on: RPMI-8226 leukemia
EKVX NSCLC = tested on: EKVX NSCLC
K-562 leukemia = tested on: K-562 leukemia
IGROV1 ovarian = tested on: IGROV1 ovarian
SF-539 CNS = tested on: SF-539 CNS
UACC-62 melanoma = tested on: UACC-62 melanoma
OVCAR-8 ovarian = tested on: OVCAR-8 ovarian
M19-MEL melanoma = tested on: M19-MEL melanoma
UO-31 renal = tested on: UO-31 renal
OVCAR-3 ovarian = tested on: OVCAR-3 ovarian

Compound O=[N+]([O-])c1nccn1COCCO has a TGI (NCI-H460 lung) of over 100 µM, a TGI (HCT-116 colon) of over 100 µM and a TGI (KM20L2 colon) of over 100 µM. It also gave a TGI (SK-MEL-28 melanoma) of over 100 µM, a TGI (TK-10 renal) of over 100 µM and a TGI (SF-268 CNS) of over 100 µM. It also gave a TGI (NCI-H522 lung) of over 100 µM, a TGI (HOP-62 NSCLC) of over 100 µM and a TGI (LXFL 529 NSCLC) of over 100 µM. The TGI (HOP-92 NSCLC) was over 100 µM, the TGI (NCI-H226 lung) was over 100 µM and the TGI (SNB-75 CNS) was over 100 µM. The TGI (SNB-78 CNS) was over 100 µM, the TGI (A549 NSCLC) was over 100 µM and the TGI (SN12C renal) was over 100 µM. For the same compound, the TGI (A498 renal) was over 100 µM, the TGI (HCC-2998 colon) was over 100 µM and the TGI (SR leukemia) was over 100 µM. The TGI (LOX IMVI melanoma) was over 100 µM, the TGI (OVCAR-5 ovarian) was over 100 µM and the TGI (OVCAR-4 ovarian) was over 100 µM. The TGI (M14 melanoma) was over 100 µM, the TGI (HOP-18 NSCLC) was 97.8 µM and the TGI (SW-620 colon) was over 100 µM. The TGI (SK-OV-3 ovarian) was over 100 µM, the TGI (MOLT-4 leukemia) was over 100 µM and the TGI (RXF 393 renal) was over 100 µM. The TGI (HL-60(TB) leukemia) was over 100 µM, the TGI (MALME-3M melanoma) was over 100 µM and the TGI (CCRF-CEM leukemia) was over 100 µM. For the same compound, the TGI (DMS 114 small cell lung) was over 100 µM, the TGI (UACC-257 melanoma) was over 100 µM and the TGI (DLD-1 colon) was over 100 µM. It also gave a TGI (XF 498 CNS) of over 100 µM, a TGI (RXF-631 renal) of over 100 µM and a TGI (ACHN renal) of over 100 µM. The TGI (KM12 colon) was over 100 µM, the TGI (CAKI-1 renal) was over 100 µM and the TGI (HT29 colon) was over 100 µM. It also gave a TGI (DMS 273 small cell lung) of over 100 µM, a TGI (COLO 205 colon) of over 100 µM and a TGI (SK-MEL-5 melanoma) of over 100 µM. For the same compound, the TGI (SNB-19 CNS) was over 100 µM, the TGI (U251 CNS) was over 100 µM and the TGI (SF-295 CNS) was over 100 µM. For the same compound, the TGI (HCT-15 colon) was over 100 µM, the TGI (786-0 renal) was over 100 µM and the TGI (SK-MEL-2 melanoma) was over 100 µM. It also gave a TGI (NCI-H23 lung) of over 100 µM and a TGI (RPMI-8226 leukemia) of over 100 µM.
In the case of CC1=C(C(=O)CC(=O)C(=O)Nc2ccc(Cl)cc2C)Sc2ccccc2N1, the TGI (NCI-H460 lung) is reported as over 100 µM, the TGI (HCT-116 colon) is reported as over 100 µM and the TGI (KM20L2 colon) is reported as over 100 µM. It also gave a TGI (SK-MEL-28 melanoma) of over 100 µM, a TGI (TK-10 renal) of over 100 µM and a TGI (SF-268 CNS) of over 100 µM. The TGI (NCI-H522 lung) was over 100 µM, the TGI (HOP-62 NSCLC) was over 100 µM and the TGI (LXFL 529 NSCLC) was over 100 µM. It also gave a TGI (HOP-92 NSCLC) of 74.7 µM, a TGI (SNB-75 CNS) of over 100 µM and a TGI (SNB-78 CNS) of over 100 µM. For the same compound, the TGI (EKVX NSCLC) was over 100 µM, the TGI (A549 NSCLC) was over 100 µM and the TGI (K-562 leukemia) was over 100 µM. It also gave a TGI (SN12C renal) of over 100 µM, a TGI (IGROV1 ovarian) of over 100 µM and a TGI (A498 renal) of over 100 µM. For the same compound, the TGI (HCC-2998 colon) was over 100 µM, the TGI (LOX IMVI melanoma) was over 100 µM and the TGI (SF-539 CNS) was over 100 µM. The TGI (OVCAR-5 ovarian) was over 100 µM, the TGI (OVCAR-4 ovarian) was over 100 µM and the TGI (M14 melanoma) was over 100 µM. It also gave a TGI (HOP-18 NSCLC) of over 100 µM, a TGI (SW-620 colon) of over 100 µM and a TGI (SK-OV-3 ovarian) of over 100 µM. The TGI (MOLT-4 leukemia) was over 77.1 µM, the TGI (RXF 393 renal) was over 100 µM and the TGI (HL-60(TB) leukemia) was over 100 µM. It also gave a TGI (MALME-3M melanoma) of over 100 µM, a TGI (CCRF-CEM leukemia) of over 100 µM and a TGI (DMS 114 small cell lung) of over 100 µM. The TGI (UACC-62 melanoma) was over 100 µM, the TGI (UACC-257 melanoma) was over 100 µM and the TGI (DLD-1 colon) was over 100 µM. It also gave a TGI (XF 498 CNS) of over 100 µM, a TGI (RXF-631 renal) of over 100 µM and a TGI (ACHN renal) of over 100 µM. For the same compound, the TGI (KM12 colon) was over 100 µM, the TGI (CAKI-1 renal) was over 100 µM and the TGI (OVCAR-8 ovarian) was over 100 µM. The TGI (HT29 colon) was over 100 µM, the TGI (DMS 273 small cell lung) was over 100 µM and the TGI (M19-MEL melanoma) was over 100 µM. For the same compound, the TGI (COLO 205 colon) was over 100 µM, the TGI (SK-MEL-5 melanoma) was over 100 µM and the TGI (SNB-19 CNS) was over 100 µM. The TGI (U251 CNS) was over 100 µM, the TGI (SF-295 CNS) was over 100 µM and the TGI (HCT-15 colon) was over 100 µM. It also gave a TGI (UO-31 renal) of over 100 µM, a TGI (786-0 renal) of over 100 µM and a TGI (SK-MEL-2 melanoma) of over 100 µM. It also gave a TGI (NCI-H23 lung) of over 100 µM, a TGI (RPMI-8226 leukemia) of over 100 µM and a TGI (OVCAR-3 ovarian) of over 100 µM.

Source: PubChem BioAssay (NCI)
